Measured values from PMC2690574 (Journal of medicinal chemistry, 2008).
Read-outs that look alike come from different tables or passages of the source.

Legend:
[1] = system: anoxic HT29 tumor tissue; experiment: Penetration half distance X½ calculated from D and kmet; conditions: for EVT based on X½ (in words): compared with TPZ
[2] = system: anoxic HT29 cell suspensions; experiment: Rate constant for metabolic consumption kmet in anoxic single cell suspensions; assay type: in vitro ADME; conditions: scaled to the cell density in MCLs
[3] = One electron reduction potential E; assay type: physicochemical; conditions: anaerobic aqueous solution, pH 7.0, pulse radiolysis
[4] = system: HT29 cells; experiment: IC50 assay, 4 h drug exposure under aerobic and anoxic conditions, HT29; assay type: cell-based; conditions: criterion HCR > 20 in the PK/PD model
[5] = cited from earlier work; for E(1): one electron reduction potential
[6] = culture medium; cited from earlier work
[7] = side chain, calculated using ACD pKa; cited from earlier work
[8] = system: HT29 cells; conditions: read-out: HT29 IC50 hypox; HT29, anoxic; cited from earlier work
[9] = system: SiHa cells; conditions: cited from earlier work
[10] = calculated using ACD logD, pH 7.4; cited from earlier work
[11] = system: anoxic HT29 cell suspensions; conditions: scaled to MCL cell density; cited from earlier work
[12] = system: HT29 MCLs; conditions: calculated; cited from earlier work

Row | kmet (first order rate constant for metabolism) [2] [min⁻¹] | E(1) [3] [mV] | SMILES | further results
1 | 0.26 |  | CCN(CC)CCNc1n[n+]([O-])c2cc3c(cc2[n+]1[O-])OCC3 [TTO 24] | EVT based on X½ (in words) [1]: predicted to display improved EVT
2 | 0.60 | −545 | CN(C)CCNc1n[n+]([O-])c2cc3c(cc2[n+]1[O-])OCC3 [TTO 23] | 
3 | 0.44 | −486 | CN(C)CCNc1n[n+]([O-])c2cc3c(cc2[n+]1[O-])CCC3 [TTO 4] | 
4 | 0.90 | −408 | [O-][n+]1nc(CCCN2CCOCC2)[n+]([O-])c2cc3c(cc21)CC(CO)C3 (centres unmarked) [TTO 37] | 
5 | 0.69 |  | [O-][n+]1nc(NCCCN2CCOCC2)[n+]([O-])c2cc3c(cc21)CCCC3 [TTO 17] | 
6 | 1.52 | −488 | CN(C)CCNc1n[n+]([O-])c2cc3c(cc2[n+]1[O-])CCCCC3 [TTO 19] | 
7 |  | −462 | CCNc1n[n+]([O-])c2cc3c(cc2[n+]1[O-])CN(C)CC3 [TTO 32] | 
8 | 0.13 |  | CC1Cc2cc3c(cc2C1)[n+]([O-])c(NCCCN1CCOCC1)n[n+]3[O-] (centres unmarked) [TTO 15] | 
9 | 1.25 |  | [O-][n+]1nc(NCCN2CCCCC2)[n+]([O-])c2cc3c(cc21)CCC3 [TTO 7] | 
10 | 0.54 | −431 | CCc1n[n+]([O-])c2cc3c(cc2[n+]1[O-])CC(CCN1CCOCC1)C3 (centres unmarked) [TTO 39] | X½ (penetration half distance) ([1]; anoxic HT29 tumor tissue, from D and kmet): 100 μm
11 | 0.23 |  | [O-][n+]1nc(NCCCN2CCOCC2)[n+]([O-])c2cc3c(cc21)CCO3 [TTO 25] | EVT based on X½ (in words) [1]: predicted to display improved EVT
12 | 0.20 | −510 | [O-][n+]1nc(NCCCN2CCOCC2)[n+]([O-])c2ccc3c(c21)CCC3 [TTO 13] | 
13 | 0.20 |  | [O-][n+]1nc(NCCCN2CCOCC2)[n+]([O-])c2cc3c(cc21)OCC3 [TTO 21] | EVT based on X½ (in words) [1]: predicted to display improved EVT
14 | 0.19 |  | [O-][n+]1nc(NCCCN2CCOCC2)[n+]([O-])c2cc3c(cc21)CCC3 [TTO 8] | 
15 | 0.54 |  | CCc1n[n+]([O-])c2cc3c(cc2[n+]1[O-])CC(CN1CCOCC1)C3 (centres unmarked) [TTO 36] | 
16 | 0.31 | −468 | [O-][n+]1nc(CCCN2CCOCC2)[n+]([O-])c2cc3c(cc21)CCO3 [TTO 40] | 

Continued, molecule first:

Row | SMILES | kmet (first order rate constant for metabolism) [2] [min⁻¹] | E(1) [3] [mV] | further results
17 | CCN1Cc2cc3c(cc2C1)[n+]([O-])c(N)n[n+]3[O-] [TTO 31] | 2.20 | −390 | 
18 | CCc1n[n+]([O-])c2cc3c(cc2[n+]1[O-])CN(C)CC3 [TTO 41] |  | −344 | 
19 | Nc1n[n+]([O-])c2cc3c(cc2[n+]1[O-])OCC3 [TTO 22] |  |  | hypoxic selectivity (in words) [4]: failed to pass the criterion for hypoxic selectivity (HCR > 20)
20 | COc1ccc2c(c1)[n+]([O-])c(NCCN(C)C)n[n+]2[O-] [compound 2] |  |  | E(1) [5]: −500 mV; lowering of E(1) by 6-OMe substituent ([5]; relative to the 3-dimethylaminoethylamine BTO): 104 mV; Sol. [6]: 46 mM; pKa [7]: 8.5; IC50 [8]: 7.7 µM; SiHa HCR ([9]; oxic IC50/hypoxic IC50): 232; IC50 ([9]; read-out: SiHa IC50 hypox, anoxic): 2.9 µM; logP7.4 calc [10]: −0.07; kmet (first order rate constant for metabolism) [11]: 0.54 min⁻¹; D calc (diffusion coefficient in HT29 MCLs) [12]: 2.9 ×10^−7 cm^2s^−1
21 | CN(C)CCNc1n[n+]([O-])c2c3c(ccc2[n+]1[O-])CCC3 [TTO 9] | 0.74 | −480 | 
22 | Nc1n[n+]([O-])c2cc3c(cc2[n+]1[O-])CCC3 [TTO 3] | 0.47 |  | 
23 | CCCN(CCC)CCNc1n[n+]([O-])c2cc3c(cc2[n+]1[O-])CCC3 [TTO 6] | 1.07 |  | 
24 | CC1Cc2cc3c(cc2C1)[n+]([O-])c(NCCN(C)C)n[n+]3[O-] (centres unmarked) [TTO 14] | 1.49 |  | 
25 | CCCN(CCC)CCNc1n[n+]([O-])c2c3c(ccc2[n+]1[O-])CCC3 [TTO 11] | 0.73 |  | 
26 | Nc1n[n+]([O-])c2ccccc2[n+]1[O-] [compound 1, tirapazamine] |  |  | E(1) [5]: −456 mV; Sol. [6]: 9 mM; logP7.4 calc [10]: −0.33
27 | CN(C)CCNc1n[n+]([O-])c2c3c(ccc2[n+]1[O-])OCCC3 [TTO 29] | 0.59 |  | 
28 | CCN(CC)CCNc1n[n+]([O-])c2c3c(ccc2[n+]1[O-])CCC3 [TTO 10] | 0.97 |  | 
29 | CCc1n[n+]([O-])c2cc3c(cc2[n+]1[O-])CC(CCO)C3 (centres unmarked) [TTO 38] | 0.54 |  | 
30 | [O-][n+]1nc(NCCN2CCCCC2)[n+]([O-])c2ccc3c(c21)CCC3 [TTO 12] | 1.60 |  | 
31 | CN(C)CCNc1n[n+]([O-])c2c3c(ccc2[n+]1[O-])CCCC3 [TTO 18] | 1.78 |  | 
32 | CCc1n[n+]([O-])c2cc3c(cc2[n+]1[O-])CC(CO)C3 (centres unmarked) [TTO 35] | 0.47 | −452 | 
33 | CCN(CC)CCNc1n[n+]([O-])c2cc3c(cc2[n+]1[O-])CCC3 [TTO 5] | 1.08 |  | 
34 | CC1Cc2cc3c(cc2C1)[n+]([O-])c(CCCO)n[n+]3[O-] (centres unmarked) [TTO 33] | 0.24 |  | 
